{"source": "patent EP1908513A1", "about": "“Method for preparing and using chemical collections” (priority 2006, dated 2008)", "key": {"[1]": {"test": "Solubilization in water or 30% PEG-8000/water, freeze-drying and reconstitution; concentration by HPLC (Example 1)", "conditions": "for PEG solutions, freeze dried and reconstituted Test 1 / PEG solutions, freeze dried and reconstituted Test 2: 30% PEG-8000, reconstituted with water; for PEG solutions, freeze dried and reconstituted Test 1 / PEG solutions, freeze dried and reconstituted Test 2 / CPEG / Cw: target 200 µM; for CPEG: 30% PEG-8000 / water, 50-fold dilution of 10 mM DMSO stock; for CPEG / Cw: filtered 0.45 µm; for Cw: aqueous solution, 50-fold dilution of 10 mM DMSO solution; for PEG solutions, reconstituted and diluted 1:10 Test 1 / PEG solutions, reconstituted and diluted 1:10 Test 2: diluted 1:10 with water, target 20 µM; for PEG solutions, reconstituted and diluted 1:10 Test 1: 3% PEG-8000, Test 1; for PEG solutions, reconstituted and diluted 1:10 Test 2: 3% PEG-8000, Test 2", "procedure": "Materials and methods. […] The following compounds were obtained from Fluka - Riedel deHaën: phenylacetic acid, p-toluenesulphonamide, carbazol (Vetranal analytical standard), Polyethylene glycol 8000. Stock solutions were prepared in dimethylsulfoxide (Sigma-Aldrich, ACS spectrophotometric grade) at 10 mM concentration by weighing an appropriate amount of each compound and adding the computed DMSO volume with a calibrated variable volume pipet (Eppendorf). A solution of PEG-8000 (30%, w/w) in water in a 50 mL centrifuge tube was prepared by weighing 15.0 g of PEG-8000 and adding water up to 50.0 g.\nSolutions were analysed using an Agilent 1100 chromatograph with the following HPLC method: • Column: Waters X-terra 4.6x50 mm, 3.5 µm • Mobile phase A: water/acetonitrile (97/3 by volume) containing 0.1% trifluoroacetic acid • Mobile phase B: acetonitrile containing 0.1% trifluoroacetic acid • Flow = 1 mL/min, injection = 10 µL, detection wavelength 220 nm (8 nm bandwidth) with reference at 400 nm (40 nm bandwidth). • Gradient 1: from 100% A to 60% A in 6 min, down to 40% A in 1 min, followed by 3 min re-equilibration at 100% A. • Gradient 2: from 70% A to 30% A in 6 min, 1 min isocratic elution at 30% A, followed by 3 min re-equilibration at 70% A.\nThe following solutions were prepared by 50-fold dilution of the DMSO stock solutions: • Target concentration: 200 µM in water • Target concentration: 200 µM in 30% PEG-8000 / water\nAfter equilibration (1 day at room temperature), all solutions were filtered through 0.45 µm cellulose filters (ProFill, 25 mm syringe filters, Alltech). Aliquots were placed in HPLC vials and submitted to analysis. Two 1 mL aliquots of each 30% PEG solution were placed into 14x100 mm pre-weighed test tubes. These tubes were weighed, and placed in liquid nitrogen to freeze the solution, and finally submitted to freeze-drying in a Lio-5P apparatus (5Pascal, Trezzano sul Naviglio, Italy). After one day, the tubes were weighed and water was added with a micropipette in order to match the original solution weight. A fraction of these solutions was diluted 1:10 with water (target concentration: 20 µM)."}, "[2]": {"conditions": "decimal logarithm of the molar aqueous solubility; cited from earlier work"}, "[3]": {"test": "Solubility in various aqueous PEG media, by HPLC (Example 2)", "conditions": "aqueous with cosolvent or surfactant or cyclodextrin, kinetic from dmso stock, Average solubility, N=3", "procedure": "Materials and methods. […] The following compounds were obtained from Fluka - Riedel deHaën: carbazol (Vetranal analytical standard), Polyethylene glycol 8000, Polyethylene glycol 20000, Polyethylene glycol 400. […] Solutions of PEG-8000 and PEG-20000 in water (30%, w/w) were prepared in 50 mL centrifuge tubes by weighing 15.0 g of the corresponding PEG and adding water up to 50.0 g. A solution containing PEG-8000 (10%, w/w) and PEG-400 (20%, w/w) was similarly prepared by mixing 5 g PEG-8000 with […], and adding water up to 50 g.\nResults. […] Starting from DMSO stock solutions, dilute solutions with a nominal concentration of 200 µM were prepared by 50-fold dilution with one of three different aqueous PEG medium. After equilibration for 1 day at room temperature, these solutions were filtered through 0.45 µm cellulose filters (ProFill, 25 mm syringe filters, Alltech). Aliquots were placed in HPLC vials and submitted to analysis."}}, "data": [{"smiles": "O=C(O)Cc1ccccc1", "note": "[Compound 1, Phenylacetic acid]", "values": [{"measurement": "PEG solutions, freeze dried and reconstituted Test 1", "setting": "[1]", "result": 181, "unit": "µM"}, {"measurement": "PEG solutions, freeze dried and reconstituted Test 2", "setting": "[1]", "result": 187, "unit": "µM"}, {"measurement": "CPEG", "setting": "[1]", "result": 198, "unit": "µM"}, {"measurement": "Cw", "setting": "[1]", "result": 200, "unit": "µM"}, {"measurement": "PEG solutions, reconstituted and diluted 1:10 Test 1", "setting": "[1]", "result": 17.7, "unit": "µM"}, {"measurement": "PEG solutions, reconstituted and diluted 1:10 Test 2", "setting": "[1]", "result": 17.8, "unit": "µM"}, {"measurement": "LogSw", "setting": "[2]", "result": -0.89}]}, {"smiles": "Cc1ccc(S(N)(=O)=O)cc1", "note": "[Compound 2, p-Toluenesulphonamide]", "values": [{"measurement": "LogSw", "setting": "[2]", "result": -1.74}]}, {"smiles": "CCOC(=O)c1ccc(O)cc1", "note": "[Compound 3, Ethyl-p-hydroxybenzoate]", "values": [{"measurement": "LogSw", "setting": "[2]", "result": -2.35}]}, {"smiles": "CC(=O)CC(c1ccccc1)c1c(O)c2ccccc2oc1=O", "note": "(stereo not drawn) [Compound 6, Warfarin]", "values": [{"measurement": "PEG solutions, freeze dried and reconstituted Test 1", "setting": "[1]", "result": 199, "unit": "µM"}, {"measurement": "PEG solutions, freeze dried and reconstituted Test 2", "setting": "[1]", "result": 199, "unit": "µM"}, {"measurement": "CPEG", "setting": "[1]", "result": 198, "unit": "µM"}, {"measurement": "Cw", "setting": "[1]", "result": 155, "unit": "µM"}, {"measurement": "PEG solutions, reconstituted and diluted 1:10 Test 1", "setting": "[1]", "result": 20.2, "unit": "µM"}, {"measurement": "PEG solutions, reconstituted and diluted 1:10 Test 2", "setting": "[1]", "result": 20.4, "unit": "µM"}, {"measurement": "LogSw", "setting": "[2]", "result": -4.26}]}, {"smiles": "c1ccc2c(c1)[nH]c1ccccc12", "note": "[Compound 8, Carbazol]", "values": [{"measurement": "measured concentration after ten-fold dilution of the reconstituted PEG lyophilized samples", "setting": "[1]; 3% PEG-8000, range over both tests and both compounds", "result": "19.0 to 19.4", "unit": "µM"}, {"measurement": "PEG solutions, freeze dried and reconstituted Test 1", "setting": "[1]", "result": 195, "unit": "µM"}, {"measurement": "PEG solutions, freeze dried and reconstituted Test 2", "setting": "[1]", "result": 195, "unit": "µM"}, {"measurement": "CPEG", "setting": "[1]", "result": 196, "unit": "µM"}, {"measurement": "Cw", "setting": "[1]", "result": 8.6, "unit": "µM"}, {"measurement": "PEG solutions, reconstituted and diluted 1:10 Test 1", "setting": "[1]", "result": 19.0, "unit": "µM"}, {"measurement": "PEG solutions, reconstituted and diluted 1:10 Test 2", "setting": "[1]", "result": 19.2, "unit": "µM"}, {"measurement": "solubility at 1 day", "setting": "[3]; 20% PEG-400 + 10% PEG-8000, nominal 200 µM", "result": 187, "unit": "µM"}, {"measurement": "solubility at 1 day", "setting": "[3]; 30% PEG-8000, nominal 200 µM", "result": 194, "unit": "µM"}, {"measurement": "solubility at 1 day", "setting": "[3]; 30% PEG-20000, nominal 200 µM", "result": 188, "unit": "µM"}, {"measurement": "LogSw", "setting": "[2]", "result": -5.27}]}]}
